For series [1], the system named is Mus musculus. Put plainly: Anticonvulsant activity against maximal electroshock-induced seizure in Swiss-Webster mouse assessed as prolongation of time for onset of convulsion at 50 to 200 mg/kg, ip relative to control. The settings on record: dose mg/kg 50-200; route intraperitoneal. The class given is functional. A general note: The maximal electroshock test induces tonic seizures with an electrical stimulus.

The test system of series [2] is Rattus norvegicus. In words: Toxicity in Wistar rat assessed as decrease in body temperature at 50 to 200 mg/kg, ip. The class given is organism-based. More on the design: dose 50-200 mg/kg, route intraperitoneal. As to conditions: in vivo.
Series [3] is described as follows: Toxicity in ip dosed Swiss-Webster mouse after 24 hrs. The class given is organism-based. As to conditions: in vivo.
For series [4], the system named is Rattus norvegicus. In words: Toxicity in Wistar rat assessed as decrease in respiration at 50 to 200 mg/kg, ip. Format: organism-based. More on the design: dose 50-200 mg/kg, route intraperitoneal; scale not given: the % may be the effect or the level left. The settings on record: in vivo.
For series [5], the system named is Mus musculus. In words: Anticonvulsant activity against pentylenetetrazole-induced seizure in Swiss-Webster mouse assessed as prolongation of time for onset of convulsion at 50 to 200 mg/kg, ip relative to control. Format: functional.
Series [6] has as its system Rattus norvegicus. In words: Toxicity in Wistar rat assessed as marked ptosis at 50 to 200 mg/kg, ip. Format: organism-based. More on the design: dose 50-200 mg/kg, route intraperitoneal. The settings on record: in vivo.
Series [7] deals with Mus musculus. Put plainly: Anticonvulsant activity against strychnine-induced seizure in Swiss-Webster mouse assessed as prolongation of time for onset of convulsion at 50 to 200 mg/kg, ip relative to control. The class given is functional. As to conditions: dose mg/kg 50-200; route intraperitoneal.
The subject of series [8] is Rattus norvegicus. In words: Toxicity in Wistar rat assessed as decrease in heart rate at 50 to 200 mg/kg, ip. Format: organism-based. More on the design: dose 50-200 mg/kg, route intraperitoneal. The settings on record: in vivo.
Series [9] deals with Mus musculus. In words: CNS depressant activity in ip dosed Swiss-Webster mouse assessed as spontaneous motor activity by rotarod assay. The class given is functional. (The rotarod test checks motor coordination on a turning rod.)
Series [10] deals with Mus musculus. In words: Anticonvulsant activity in Swiss-Webster mouse assessed as protection against pentylenetetrazole-induced seizure at 10 to 20 mg/kg, ip. The class given is functional, organism-based.
For series [11], the system named is Mus musculus. Put plainly: Anticonvulsant activity in Swiss-Webster mouse assessed as protection against strychnine-induced seizure at 10 to 20 mg/kg, ip. The class given is functional, organism-based.
Series [12] concerns Mus musculus. In words: Safety index, ratio of LD50 for toxicity in Swiss-Webster mouse to ED50 for CNS depressant activity in ip dosed Swiss-Webster by rotarod assay. The class given is functional.
For series [13], the system named is Rattus norvegicus. Put plainly: Toxicity in Wistar rat assessed as decrease in body temperature at 5 to 15 mg/kg, ip. The class given is organism-based. More on the design: dose 5-15 mg/kg, route intraperitoneal. The settings on record: in vivo.
Series [14] concerns Rattus norvegicus. In words: Toxicity in Wistar rat assessed as decrease in respiration at 5 to 15 mg/kg, ip. Format: organism-based. More on the design: dose 5-15 mg/kg, route intraperitoneal; scale not given: the % may be the effect or the level left. The settings on record: in vivo.
Series [15] relates to Rattus norvegicus. Put plainly: Toxicity in Wistar rat assessed as decrease in heart rate at 5 to 15 mg/kg, ip. The class given is organism-based. More on the design: dose 5-15 mg/kg, route intraperitoneal. As to conditions: in vivo.
For series [16], the system named is Rattus norvegicus. Put plainly: Toxicity in Wistar rat assessed as marked ptosis at 5 to 15 mg/kg, ip. The class given is organism-based. More on the design: dose 5-15 mg/kg, route intraperitoneal. The settings on record: in vivo.
Series [17] deals with Mus musculus. Put plainly: CNS depressant activity in Swiss-Webster mouse assessed as spontaneous motor activity at 50 to 200 mg/kg, ip by rotarod assay relative to control. Format: functional. The settings on record: dose mg/kg 50-200; route intraperitoneal.
Series [18] concerns Mus musculus. In words: CNS depressant activity in Swiss-Webster mouse assessed as forced motor activity at 50 to 200 mg/kg, ip by rotarod assay relative to control. The class given is functional. As to conditions: dose mg/kg 50-200; route intraperitoneal.

Molecules are shown by their SMILES. Active and inactive are the calls of the source. No cut-off for these calls is given here.

Six compounds from ChEMBL document CHEMBL3272311, “Syntheses and pharmacological activity of substituted imidazolidinethiones and thiomidazolines” (J Med Chem, 1977) can be followed below.

The term LD50 denotes the dose expected to kill half of the subjects tested. Usually ED50 stands for the dose that gives a 50% effect, or the effect in half of the subjects.

In the case of `CSC1=NCCN1C(C)=O`, the Activity in series [1] is reported as 90%; in series [4], 50%; in [6] it was “Toxic”; in [7], 48%; in [8], 25 bpm. Moreover, the T in series [2] worked out at 3 °C. This compound registered an LD50 at 24 h in [3] of more than 1000 mg/kg. Also, the result in series [5] was Active. In series [9], the ED50 worked out at 150 mg/kg.

`O=C1NC(=O)C(c2ccccc2)(c2ccccc2)N1` [PHENYTOIN]: the result in series [10] and in [11] was inactive. Besides, the 50% effective dose (ED50) in series [9] worked out at 10.7 mg/kg.

For the compound `COC(=O)N1CCN=C1SC`, the Activity in [1] worked out at 106%. The LD50 at 24 h in series [3] was more than 1000 mg/kg. Also, the result in series [5] was Active. For the same compound, the “Ratio LD50/ED50” value in series [12] is recorded as 16.1.

Turning to `CC(=O)N1CCN(C)C1=S`, in [3], the 50% lethal dose (LD50) at 24 h worked out at 40 mg/kg. The “Ratio LD50/ED50” value in series [12] was determined as 0.5.

On to `COC(=O)N1CCN(C)C1=S`, for which the T in series [13] came to 1 °C. The compound further registered an LD50 at 24 h in [3] of 25 mg/kg. The Activity in series [14] is reported as 20%; in [15] it was 8 bpm; in series [16], “Non-toxic”. Besides, the ED50 in series [9] came out at 18 mg/kg.

`COC(=O)N1CCN=C1SCC(=O)c1ccccc1`: the Activity in series [1] stood at 75%; in [5] (dose mg/kg 50-200, route intraperitoneal), 134%. The LD50 at 24 h in [3] was more than 1000 mg/kg. The “inhibition (INH)” value in series [17] was 85%; in [18], 40%.
